Common to all, as to test: growth of human tumour cells (NCI), 48 h
The subject of assay [1] is 786-0.
Assay [2] concerns EKVX.
Assay [3] relates to HCT-116.
The test system of assay [4] is HOP-92.
Assay [5] has as its system Hs-578T.
For assay [6], the system named is NCI-H23.
In assay [7] the test system is NCI-H460.
In assay [8] the test system is OVCAR-8.
Assay [9] has as its system PC-3.
Assay [10] concerns SF-268.
Assay [11] has as its system SF-295.
Assay [12] deals with SK-MEL-28.
Assay [13] has as its system SN12C.
Assay [14] concerns SNB-75.
In assay [15] the test system is SR.
The test system of assay [16] is TK-10.
The subject of assay [17] is U-251.
Assay [18] has as its system ACHN.
In assay [19] the test system is MCF7.
Assay [20] has as its system HCC 2998.

Data on eleven compounds can be found in ChEMBL document CHEMBL1201862, “PubChem BioAssay data set” (2004).

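Exposure lasted 48 hours, with cells grown in 96-well plates and compounds tested at five concentrations. GI50: concentration for 50% inhibition of growth.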 The source made the active and inactive calls. Cut-off read from the data, not from the text of the source: active = GI50 up to about 1.1 µM and inactive = higher. Some results are limits rather than exact numbers.

As to `COc1cc(C=O)ccc1Oc1nnnn1-c1ccccc1`, the GI50 in [1] is > 100 µM (inactive); in [2], > 100 µM (inactive); in assay [3] it was 29.8 µM (inactive); in assay [4], 71.4 µM (inactive); in [5] it was 48.6 µM (inactive); in assay [6] it was 46 µM (inactive). Also, the GI50 in assay [7] was > 100 µM (inactive); in assay [8], 66.2 µM (inactive); in assay [9], 82.4 µM (inactive); in assay [10] it was 42.7 µM (inactive); in assay [11], > 100 µM (inactive); in assay [12], 72.4 µM (inactive). Also, the GI50 in [13] was > 100 µM (inactive); in assay [14] it was 34.8 µM (inactive); in assay [15], 18.9 µM (inactive); in assay [16], > 100 µM (inactive); in assay [17], 85.3 µM (inactive).
For the compound `CSc1nn(C)cc2ncnc1-2`, the GI50 in assay [1], in assay [18], in [2], in assay [3], in assay [5] and in assay [19] was > 100 µM (inactive) in each case. For the same compound, the GI50 in assay [6], in assay [7], in [8], in assay [9], in [10] and in [11] was > 100 µM (inactive) each time. Further, the GI50 in assay [12] was > 100 µM (inactive); in assay [13] it was > 100 µM (inactive); in assay [14], 0.206 µM (active); in assay [15], 97.1 µM (inactive); in [16], > 100 µM (inactive); in assay [17], > 100 µM (inactive).
On to `COc1cc(/C=C2\C[C@H]3[C@@H]4CC=C5C[C@@H](O)CC[C@]5(C)[C@H]4CC[C@]3(C)[C@H]2O)cc(OC)c1OC`, for which the GI50 is 10.8 µM (inactive) in assay [1]; 6.27 µM (inactive) in assay [18]; 34 µM (inactive) in [2]; 17.3 µM (inactive) in [20]; 8.05 µM (inactive) in [3]; 12.7 µM (inactive) in assay [4]. The GI50 in assay [5] is 19.9 µM (inactive); in [19] it was 8.34 µM (inactive); in [6], 10.3 µM (inactive); in assay [7], 12 µM (inactive); in [8], 19 µM (inactive); in assay [9] it was 16.6 µM (inactive). For the same compound, the GI50 is 54.8 µM (inactive) in assay [10]; 4.84 µM (inactive) in assay [11]; 25.2 µM (inactive) in assay [12]; 38.3 µM (inactive) in assay [13]; 9.06 µM (inactive) in [14]; 14.1 µM (inactive) in assay [16]. Also, the GI50 in [17] is 11 µM (inactive).
Turning to `O=C1CCCN1C(=O)CS(=O)(=O)c1ccccc1`, the GI50 in [1], in assay [18], in assay [20], in [3], in [4] and in assay [5] was > 100 µM (inactive) in each case. Further, the GI50 in assay [6], in assay [7], in [8], in assay [9], in assay [10] and in assay [11] was > 100 µM (inactive) throughout. The GI50 in assay [12], in assay [13], in assay [14], in [15], in assay [16] and in [17] was > 100 µM (inactive) throughout.
Regarding `Cc1cccc(C)c1NC(=O)/C(Cc1nc2ccc([N+](=O)[O-])cc2nc1O)=N\NC(N)=O`, the GI50 in assay [1] was > 100 µM (inactive); in assay [18], 94 µM (inactive); in [2], 64.6 µM (inactive); in assay [20] it was > 100 µM (inactive); in [3], 83.2 µM (inactive); in assay [4], 57.8 µM (inactive). The GI50 in assay [5] was > 100 µM (inactive); in assay [19], 63.1 µM (inactive); in [6], > 100 µM (inactive); in assay [7], > 100 µM (inactive); in assay [8], > 100 µM (inactive); in [9], 66.5 µM (inactive). In addition, the GI50 in assay [10], in [11], in [12], in assay [13], in assay [14] and in assay [16] was > 100 µM (inactive) each time. The GI50 in assay [17] was > 100 µM (inactive).
As to `NC(=O)CC(N)C(=O)NC(Cc1ccccc1)C(=O)NC(Cc1ccccc1)NC(=O)C(Cc1c[nH]c2ccccc12)C(=O)O` (centres undefined), the GI50 in assay [1], in assay [18], in assay [2], in assay [20], in assay [3] and in assay [4] was > 100 µM (inactive) throughout. Moreover, the GI50 in assay [5], in [19], in assay [6], in [7], in assay [8] and in assay [9] was > 100 µM (inactive) each time. Also, the GI50 in assay [10] is > 100 µM (inactive); in assay [11], > 100 µM (inactive); in [12], > 100 µM (inactive); in assay [13], > 100 µM (inactive); in assay [14] it was 71.8 µM (inactive); in [16] it was > 100 µM (inactive). Besides, in [17], the GI50 is > 100 µM (inactive).
For the compound `CN(Cc1cnc2c(N)nc(N)nc2n1)c1ccc(Cl)cc1`, the GI50 is 26.6 µM (inactive) in assay [18]; > 100 µM (inactive) in [2]; 33.9 µM (inactive) in assay [5]; 95.5 µM (inactive) in [19]; 34 µM (inactive) in assay [6]; 42.5 µM (inactive) in [7]. For the same compound, the GI50 was 21.5 µM (inactive) in assay [8]; 65.5 µM (inactive) in assay [9]; 33.6 µM (inactive) in [10]; 72.1 µM (inactive) in [11]; > 100 µM (inactive) in assay [13]; 12.5 µM (inactive) in [14]. Moreover, the GI50 is 62.2 µM (inactive) in assay [15], 38.7 µM (inactive) in [16] and > 100 µM (inactive) in assay [17].
Regarding `O=C1c2ccccc2-c2ccc(O)cc21`, the GI50 in assay [1] is 36.1 µM (inactive); in assay [18], 16.6 µM (inactive); in [2], 16.4 µM (inactive); in [3], 45.6 µM (inactive); in assay [5], 33.6 µM (inactive); in assay [19], 21.2 µM (inactive). Moreover, the GI50 is 16.9 µM (inactive) in assay [6]; 20.1 µM (inactive) in [7]; 20.2 µM (inactive) in [8]; 17.2 µM (inactive) in [9]; 19.1 µM (inactive) in [10]; 22.9 µM (inactive) in assay [11]. Further, the GI50 in assay [12] is 19.7 µM (inactive); in [13], 15.7 µM (inactive); in assay [14], 29 µM (inactive); in assay [15], 12 µM (inactive); in assay [16], 24.5 µM (inactive); in [17] it was 26.7 µM (inactive).
As for `C=C(C)CCC1CC=[N+]([O-])OC1C(C)(C)C` (centres undefined), the GI50 in [1] is 96.4 µM (inactive); in assay [18] it was 68.9 µM (inactive); in [2], 68.2 µM (inactive); in assay [20], > 100 µM (inactive); in [3] it was 21.8 µM (inactive); in [4] it was > 100 µM (inactive). Moreover, the GI50 in assay [5] was 36.6 µM (inactive); in [19], 15.5 µM (inactive); in assay [7], 51.8 µM (inactive); in assay [8], 66.5 µM (inactive); in [10] it was 58.9 µM (inactive); in [11], > 100 µM (inactive). In addition, the GI50 in assay [13] was 49.4 µM (inactive); in assay [14], 31.3 µM (inactive); in [15], 36.3 µM (inactive); in assay [16] it was > 100 µM (inactive); in assay [17], 46.9 µM (inactive).
As for `CCOC(=O)[C@@]12CCC(C1=O)[C@](C)(O)C[C@@H]2c1ccccc1`, the GI50 in [1] is 23.1 µM (inactive); in [18] it was 53.2 µM (inactive); in assay [2], 57.1 µM (inactive); in assay [3] it was 32.6 µM (inactive); in [4], 55.1 µM (inactive); in assay [5], 22.6 µM (inactive). Besides, the GI50 is 66.5 µM (inactive) in [6]; 39.2 µM (inactive) in assay [7]; 54.8 µM (inactive) in [8]; 34 µM (inactive) in assay [9]; 36.2 µM (inactive) in assay [10]; 32.7 µM (inactive) in assay [11]. In addition, the GI50 in assay [12] was 79.3 µM (inactive); in [13] it was 24.8 µM (inactive); in assay [14] it was 33 µM (inactive); in assay [16] it was > 100 µM (inactive); in assay [17], 33.7 µM (inactive).
In the case of `Nc1ncnc2c1nnn2C1C=CC(CP(=O)(O)O)C1` (centres undefined), the GI50 in assay [1], in assay [18], in assay [2], in assay [20], in assay [3] and in assay [5] was > 100 µM (inactive) throughout. The GI50 in assay [19], in assay [6], in [7], in assay [8], in assay [9] and in [10] was > 100 µM (inactive) each time. The GI50 in assay [11], in assay [12], in assay [13], in assay [16] and in [17] was > 100 µM (inactive) throughout.
